Assay results taken from patent publication US11590199B2, “Use of an ABC transporter peptide inhibitor” (HUNAN UNIVERSITY OF SCIENCE AND ENGINEERING, priority 2021, dated 2023).

Key:
[1] = system: HEK293/pcDNA3.1 parental cell line; test: MDR reversal study (MTT), parental HEK293/pcDNA3.1; format: cell-based; conditions: for IC50 / RF: chemotherapeutic drug alone
[2] = system: transfected ABCC1-overexpressing cell line HEK293/ABCC1; test: MDR reversal study (MTT), transfected ABCC1-overexpressing cells; format: cell-based; conditions: chemotherapeutic drug alone
[3] = system: drug-induced ABCB1-overexpressing cancer cell line KB-C2; test: MDR reversal study (MTT), drug-induced ABCB1-overexpressing cells; conditions: chemotherapeutic drug alone
[4] = system: KB-3-1 parental cell line; test: MDR reversal study (MTT), parental KB-3-1; format: cell-based; conditions: chemotherapeutic drug alone
[5] = system: drug-induced ABCC1-overexpressing cancer cell line KB-CV60; test: MDR reversal study (MTT), drug-induced ABCC1-overexpressing cells; format: cell-based; conditions: chemotherapeutic drug alone, Table 4
parental cells (KB-3-1) = test: cells; conditions: Homo sapiens

SMILES | RF ([1]; Table 3) | RF ([1]; Table 5) | RF [2] | RF ([4]; Table 2) | RF ([4]; Table 4) | RF [5] | other results
N.N.[Cl][Pt][Cl] [Cisplatin] | 1.00 | 1.00 | 1.01 | 1.00 | 1.00 | 1.25 | IC50 ([1]; Table 3): 2210 ± 541 nM; IC50 ([1]; Table 5): 2210 nM; IC50 [2]: 2240 nM; RF [3]: ± 0.428 (1.13); IC50 ([4]; Table 2): 1790 ± 476 nM; IC50 ([4]; Table 4): 1790 nM; IC50 [5]: 2230 nM
COc1cccc2c1C(=O)c1c(O)c3c(c(O)c1C2=O)C[C@@](O)(C(=O)CO)C[C@@H]3O[C@H]1C[C@H](N)[C@H](O)[C@H](C)O1 [Doxorubicin] | – | – | – | 1.00 | – | – | –
CN(C)C(=O)CCSC(SCCC(=O)O)c1cccc(/C=C/c2ccc3ccc(Cl)cc3n2)c1 (stereo not shown) [MK571] | – | – | – | – | – | – | RF of cisplatin ([1]; cisplatin + MK571 (5 μM)): 0.99; RF of vincristine ([1]; vincristine + MK571 (5 μM)): 1.02
CC(=O)O[C@H]1C(=O)[C@@]2(C)[C@H]([C@H](OC(=O)c3ccccc3)[C@]3(O)C[C@H](OC(=O)[C@H](O)[C@@H](NC(=O)c4ccccc4)c4ccccc4)C(C)=C1C3(C)C)[C@]1(OC(C)=O)CO[C@@H]1C[C@@H]2O [Paclitaxel] | 1.00 | – | – | 1.00 | – | – | –
CC[C@]1(O)C[C@H]2CN(CCc3c([nH]c4ccccc34)[C@@](C(=O)OC)(c3cc4c(cc3OC)N(C=O)[C@H]3[C@@](O)(C(=O)OC)[C@H](OC(C)=O)[C@]5(CC)C=CCN6CC[C@]43[C@@H]65)C2)C1 [Vincristine] | – | 1.00 | 19.79 | – | 1.00 | 169.05 | IC50 ([1]; Homo sapiens, Table 5): 137 nM; IC50 ([4]; Homo sapiens, 72 h, Table 4): 95 nM; IC50 (parental cells (KB-3-1)): 95 nM
